How the values were obtained:
[1] = system: GSTP1; test: Human oxidative stress RT2 Profiler PCR array in HGEPp cells: GSTP1; assay type: cell-based; conditions: 100 μg/ml, 24 h, RT-PCR ΔΔCt
Method: (§1) RT-PCR was performed on an iCycler.

[2] = system: UCP2; test: Human oxidative stress RT2 Profiler PCR array in HGEPp cells: UCP2; assay type: cell-based; conditions: 100 μg/ml, 24 h, RT-PCR ΔΔCt
Method: as §1

[3] = system: NQO1; test: Human oxidative stress RT2 Profiler PCR array in HGEPp cells: NQO1; assay type: cell-based; conditions: 100 μg/ml, 24 h, RT-PCR ΔΔCt
Method: as §1

[4] = system: GCLC; test: Human oxidative stress RT2 Profiler PCR array in HGEPp cells: GCLC; assay type: cell-based; conditions: 100 μg/ml, 24 h, RT-PCR ΔΔCt
Method: as §1

[5] = system: GPX4; test: Human oxidative stress RT2 Profiler PCR array in HGEPp cells: GPX4; conditions: 100 μg/ml, 24 h, RT-PCR ΔΔCt
Method: (§2) Pooled primary HGEPp cells were propagated in CnT-Prime epithelial culture medium provided by CellnTec on 100 mm petri dishes coated with 30 mg/ml Type I rat tail collagen (BD Biosciences) diluted in Dulbecco's phosphate-buffered saline (DPBS). HGEPp cells were grown in 12×60 mm Nunc™ Cell Culture dishes at a 2.5×10^4 cells/cm2 density concentration.
(§3) All dosing solutions contained 0.3% of DMSO which is well below the maximum tolerated DMSO percent of 0.8% for HGEPp cells.
(§4) The cDNA from above was mixed with the RT2 SYBR Green fluor Mastermix and aliquoted into the wells of the RT2 Profiler PCR Array. RT-PCR was performed on an iCycler. Gene expression was compared using Ct values and the results were calculated using ΔΔ Ct method with normalization to the average expression levels of the five common genes (ACTB, B2M, GAPDH, HPRT, and RPL13A).

[6] = system: GCLM; test: Human oxidative stress RT2 Profiler PCR array in HGEPp cells: GCLM; assay type: cell-based; conditions: 100 μg/ml, 24 h, RT-PCR ΔΔCt
Method: as §1

[7] = system: PTGS1; test: Human oxidative stress RT2 Profiler PCR array in HGEPp cells: PTGS1; assay type: cell-based; conditions: 100 μg/ml, 24 h, RT-PCR ΔΔCt
Method: as §1

[8] = system: GTF2i; test: Human oxidative stress RT2 Profiler PCR array in HGEPp cells: GTF2i; assay type: cell-based; conditions: 100 μg/ml, 24 h, RT-PCR ΔΔCt
Method: as §1

[9] = system: SOD1; test: Human oxidative stress RT2 Profiler PCR array in HGEPp cells: SOD1; assay type: cell-based; conditions: 100 μg/ml, 24 h, RT-PCR ΔΔCt
Method: as §1

[10] = system: MPO; test: Human oxidative stress RT2 Profiler PCR array in HGEPp cells: MPO; conditions: 100 μg/ml, 24 h, RT-PCR ΔΔCt
Method: as §2, §3, §4

[11] = system: HGEPp cells; test: ROS production in H2O2-induced oxidatively stressed HGEPp cells; conditions: HGEPp cells pretreated 24 hrs at 100 μg/mL, then 0.3 mM H2O2 for 4 h; positive control 139%
[12] = system: ALOX12; test: Human oxidative stress RT2 Profiler PCR array in HGEPp cells: ALOX12; assay type: cell-based; conditions: 100 μg/ml, 24 h, RT-PCR ΔΔCt
Method: as §1

[13] = system: GPX1; test: Human oxidative stress RT2 Profiler PCR array in HGEPp cells: GPX1; assay type: cell-based; conditions: 100 μg/ml, 24 h, RT-PCR ΔΔCt
Method: as §1

[14] = system: PRDX2; test: Human oxidative stress RT2 Profiler PCR array in HGEPp cells: PRDX2; conditions: 100 μg/ml, 24 h, RT-PCR ΔΔCt
Method: as §2, §3, §4

Row | Molecule | GSTP1 up regulation relative fold change [1] | UCP2 down regulation relative fold change [2] | NQO1 up regulation relative fold change [3] | GCLC up regulation relative fold change [4] | GPX4 up regulation relative fold change [5] | GCLM up regulation relative fold change [6] | PTGS1 down regulation relative fold change [7] | GTF2i down regulation relative fold change [8] | SOD1 up regulation relative fold change [9] | MPO up regulation relative fold change [10] | ROS level (optical density, Normal = 100% baseline) [11] | ALOX12 up regulation relative fold change [12] | GPX1 up regulation relative fold change [13] | PRDX2 down regulation relative fold change [14] | other results
1 | Cc1c(-c2cnccn2)ssc1=S.Cl [Example 1, hydrochloride complex of oltipraz] | 2.77 fold | 0.26 fold | 3.14 fold | 3.35 fold | 2.86 fold | 2.33 fold | 0.28 fold | 0.33 fold | 3.86 fold | 3.22 fold | 128% | 6.38 fold | 4.81 fold | 0.31 fold | 
2 | Cc1c(-c2cncc[n+]2OC2=CC(=O)OC2=O)ssc1=S [Example 2, hydroxymaleate anhydride complex of oltipraz] | 3.07 fold | 0.15 fold | 4.07 fold | 4.52 fold | 2.84 fold | 3.01 fold | 0.23 fold | 0.26 fold | 5.13 fold | 3.21 fold | 116% | 6.46 fold | 4.8 fold | 0.26 fold | 
3 | Cc1c(-c2cnccn2)ssc1=S.O=S(=O)(O)CCO [Example 10, isethionic acid complex of oltipraz] | significantly higher up-regulation | 0.16 fold | significantly higher up-regulation | significantly higher up-regulation | 2.79 fold | significantly higher up-regulation | 0.22 fold | 0.31 fold | significantly higher up-regulation | 3.39 fold | 113% | 6.48 fold | 4.86 fold | 0.28 fold | GSTP1 up regulation relative fold change ([1]; listed as Ex. 10): 3.18 fold; NQO1 up regulation relative fold change ([3]; listed as Ex. 10): 4.26 fold; GCLC up regulation relative fold change ([4]; listed as Ex. 10): 4.52 fold; GCLM up regulation relative fold change ([6]; listed as Ex. 10): 3.11 fold; SOD1 up regulation relative fold change ([9]; listed as Ex. 10): 5.23 fold
4 | Diethyl Thiophosphate Complex of Oltipraz [Example 8] | 3.08 fold | 0.14 fold | 3.92 fold | 4.39 fold | 3.02 fold | 3.02 fold | 0.23 fold | 0.29 fold | 4.86 fold | 3.47 fold | 115% | 6.41 fold | 4.81 fold | 0.28 fold | 
5 | acetyl chloride complex of oltipraz [Example 3] | 2.87 fold | 0.26 fold | 3.36 fold | 3.27 fold | 2.83 fold | 2.38 fold | 0.29 fold | 0.32 fold | 4.24 fold | 3.10 fold | 129% | 6.33 fold | 4.76 fold | 0.33 fold | 
6 | benzoyl chloride complex of oltipraz [Example 6] | 2.74 fold | 0.28 fold | 3.17 fold | 3.31 fold | 2.91 fold | 2.25 fold | 0.28 fold | 0.36 fold | 3.92 fold | 3.05 fold | 131% | 5.93 fold | 4.43 fold | 0.31 fold | 
7 | diethyl dithiophosphate complex of oltipraz [Example 7] | 3.13 fold | 0.17 fold | 3.93 fold | 4.41 fold | 2.99 fold | 3.00 fold | 0.21 fold | 0.29 fold | 4.85 fold | 3.42 fold | 117% | 6.38 fold | 4.72 fold | 0.28 fold | 
8 | dimethyl phosphate complex of N-methyl oltipraz [Example 9] | significantly higher up-regulation | 0.15 fold | significantly higher up-regulation | significantly higher up-regulation | 2.93 fold | significantly higher up-regulation | 0.21 fold | 0.28 fold | significantly higher up-regulation | 3.41 fold | 112% | 6.43 fold | 4.89 fold | 0.27 fold | GSTP1 up regulation relative fold change ([1]; listed as Ex. 9): 3.16 fold; NQO1 up regulation relative fold change ([3]; listed as Ex. 9): 4.24 fold; GCLC up regulation relative fold change ([4]; listed as Ex. 9): 4.60 fold; GCLM up regulation relative fold change ([6]; listed as Ex. 9): 3.15 fold; SOD1 up regulation relative fold change ([9]; listed as Ex. 9): 5.22 fold

— patent publication US12312343B2, “Rotomeric isomers of 4-alkyl-5-heteroaryl-3H-1,2-dithiole-3-thiones” (ST IP HOLDING AG, priority 2018, dated 2025)
